Data published in US12018021B2 (UCB Biopharma SRL, priority 2018, dated 2024).

biological target: IgE-Tb / FcεRIα-Y131A-AF488 (Homo sapiens, UniProt P01854); test: IgE-Tb / FcεRIα-Y131A-AF488 FRET assay (protocol for examples 1 to 233); type: binding; details: examples 1 to 233: 5 nM IgE-Tb, 25 nM FcεRIα-Y131A-AF488, incubated 2 hours at room temperature; read-out: Y131A FRET IC50 range
Outline: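 TR-FRET displacement with 5 nM IgE-Tb and 25 nM FcεRIα-Y131A-AF488 (final), 10-point 3-fold compound dilutions from typically 10 μM top, 2% DMSO, 2 h at room temperature. Excitation 330 nm, 520/495 nm emission ratio; MIN set with 200 nM unlabelled FcεRIα. IC50 from four-parameter logistic fit of percent inhibition.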

Sequence of IgE-Tb / FcεRIα-Y131A-AF488 (P01854 1-427 limits assumed, stated change not applied): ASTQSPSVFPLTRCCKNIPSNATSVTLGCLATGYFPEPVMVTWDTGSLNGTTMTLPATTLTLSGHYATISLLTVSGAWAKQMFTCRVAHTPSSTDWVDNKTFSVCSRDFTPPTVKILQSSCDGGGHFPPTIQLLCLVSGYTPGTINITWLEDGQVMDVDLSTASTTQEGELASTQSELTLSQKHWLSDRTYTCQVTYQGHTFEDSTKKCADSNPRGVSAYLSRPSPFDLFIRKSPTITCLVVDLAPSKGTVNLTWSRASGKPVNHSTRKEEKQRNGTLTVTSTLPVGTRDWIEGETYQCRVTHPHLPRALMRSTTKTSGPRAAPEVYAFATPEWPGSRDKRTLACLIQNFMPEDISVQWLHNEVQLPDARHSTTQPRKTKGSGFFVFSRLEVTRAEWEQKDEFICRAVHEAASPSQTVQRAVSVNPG

SMILES | IC50 [nM]
CC(=NC#N)NC1CCc2sc(NC(=O)C3CC3)c(C(=O)NCC3CC3)c2C1 (stereo not drawn) [Example 197, 5-[[N-Cyano-C-methyl-carbonimidoyl]amino]-2-(cyclopropanecarbonylamino)-N-(cyclopropylmethyl)-4,5,6,7-tetrahydrobenzothiophene-3-carboxamide] | < 1000
O=C(NCC1CC1)c1c(NC(=O)C2CC2)sc2c1CC(n1cnnn1)CC2 (stereo not drawn) [Example 198, 2-(Cyclopropanecarbonylamino)-N-(cyclopropylmethyl)-5-(tetrazol-1-yl)-4,5,6,7-tetrahydrobenzothiophene-3-carboxamide] | < 1000
Cc1cc(Nc2nncn2C2CCc3sc(NC(=O)C4CC4)c(C(=O)NCC(C)(C)F)c3C2)n(C)n1 (stereo not drawn) [Example 200, 2-(cyclopropanecarbonylamino)-5-[3-[(2,5-dimethylpyrazol-3-yl)amino]-1,2,4-triazol-4-yl]-N-(2-fluoro-2-methyl-propyl)-4,5,6,7-tetrahydrobenzothiophene-3-carboxamide] | < 1000
O=C(NCC1CC1)c1c(NC(=O)C2CC2)sc2c1CC(N1CCOCC1)CC2 (stereo not drawn) [Example 201, 2-(Cyclopropanecarbonylamino)-N-(cyclopropylmethyl)-5-morpholino-4,5,6,7-tetrahydrobenzothiophene-3-carboxamide] | 1000 to 10000
CCNc1nnc(C(F)(F)F)n1C1CCc2sc(NC(=O)C3CC3)c(C(=O)NCC3CC3)c2C1 (stereo not drawn) [Example 202, 2-(Cyclopropanecarbonylamino)-N-(cyclopropylmethyl)-5-[3-(ethylamino)-5-(trifluoromethyl)-1,2,4-triazol-4-yl]-4,5,6,7-tetrahydrobenzothiophene-3-carboxamide] | 1000 to 10000
O=C(NCC1CC1)c1c(NC(=O)C2CC2)sc2c1CC(Nc1nc(=O)cc[nH]1)CC2 (stereo not drawn) [Example 203, 2-(Cyclopropanecarbonylamino)-N-(cyclopropylmethyl)-5-[(4-oxo-1H-pyrimidin-2-yl)amino]-4,5,6,7-tetrahydrobenzothiophene-3-carboxamide] | < 1000
CC(C)NS(=O)(=O)NC1CCc2sc(NC(=O)C3CC3)c(C(=O)NCC3CC3)c2C1 (stereo not drawn) [Example 204, 2-(Cyclopropanecarbonylamino)-N-(cyclopropylmethyl)-5-(isopropylsulfamoylamino)-4,5,6,7-tetrahydrobenzothiophene-3-carboxamide] | 1000 to 10000
N#CN=C(NC1CCc2sc(NC(=O)C3CC3)c(C(=O)NCC3CC3)c2C1)NN1CCOCC1 (stereo not drawn) [Example 205, 5-[[N′-Cyano-N-morpholino-carbamimidoyl]amino]-2-(cyclopropanecarbonylamino)-N-(cyclopropylmethyl)-4,5,6,7-tetrahydrobenzothiophene-3-carboxamide] | 1000 to 10000
CC(=O)NC1CCc2sc(NC(=O)C3CC3)c(C(=O)NCC3CC3)c2C1 (stereo not drawn) [Example 206, 5-Acetamido-2-(cyclopropanecarbonylamino)-N-(cyclopropylmethyl)-4,5,6,7-tetrahydrobenzothiophene-3-carboxamide] | 1000 to 10000
CS(=O)(=O)NC1CCc2sc(NC(=O)C3CC3)c(C(=O)NCC3CC3)c2C1 (stereo not drawn) [Example 207, 2-(Cyclopropanecarbonylamino)-N-(cyclopropylmethyl)-5-(methanesulfonamido)-4,5,6,7-tetrahydrobenzothiophene-3-carboxamide] | < 1000
CONC(=NC#N)NC1CCc2sc(NC(=O)C3CC3)c(C(=O)NCC3CC3)c2C1 (stereo not drawn) [Example 208, 5-[[N′-Cyano-N-methoxy-carbamimidoyl]amino]-2-(cyclopropanecarbonylamino)-N-(cyclopropylmethyl)-4,5,6,7-tetrahydrobenzothiophene-3-carboxamide] | < 1000
COc1ccc(NC(=O)NC2CCc3sc(NC(=O)C4CC4)c(C(=O)NCC(C)C)c3C2)cc1 (stereo not drawn) [Example 209, 2-(Cyclopropanecarbonylamino)-N-isobutyl-5-[(4-methoxyphenyl)carbamoylamino]-4,5,6,7-tetrahydrobenzothiophene-3-carboxamide] | < 1000
O=C(NCC1CC1)c1c(NC(=O)C2CC2)sc2c1CC(Nc1nc(=O)cc(C(F)(F)F)[nH]1)CC2 (stereo not drawn) [Example 210, 2-(Cyclopropanecarbonylamino)-N-(cyclopropylmethyl)-5-[[4-oxo-6-(trifluoromethyl)-1H-pyrimidin-2-yl]amino]-4,5,6,7-tetrahydrobenzothiophene-3-carboxamide] | < 1000
CC1CCN(C(=O)c2c(NC(=O)C3CC3)sc3c2CC(NS(C)(=O)=O)CC3)C1 (stereo not drawn) [Example 211, N-[5-(Methanesulfonamido)-3-(3-methylpyrrolidine-1-carbonyl)-4,5,6,7-tetrahydrobenzothiophen-2-yl]cyclopropanecarboxamide] | 1000 to 10000
CCCNC(=O)c1c(NC(=O)C2CC2)sc2c1CC(NC(=O)Nc1ccc(OC(F)(F)F)cc1)CC2 (stereo not drawn) [Example 212, 2-(Cyclopropanecarbonylamino)-N-propyl-5-[[4-(trifluoromethoxy)phenyl]carbamoylamino]-4,5,6,7-tetrahydrobenzothiophene-3-carboxamide] | < 1000
CC(C)C(=O)Nc1nncn1[C@H]1CCc2sc(NC(=O)C3CC3)c(C(=O)NCC3CC3)c2C1 [Example 213, (5S)-2-(cyclopropanecarbonylamino)-N-(cyclopropylmethyl)-5-[3-(2-methylpropanoylamino)-1,2,4-triazol-4-yl]-4,5,6,7-tetrahydrobenzothiophene-3-carboxamide] | < 1000
Cc1cc(N(C)c2nncn2[C@H]2CCc3sc(NC(=O)C4CC4)c(C(=O)NCC4CC4)c3C2)n(C)n1 [Example 214, (5S)-2-(cyclopropanecarbonylamino)-N-(cyclopropylmethyl)-5-[3-[(2,5-dimethylpyrazol-3-yl)-methyl-amino]-1,2,4-triazol-4-yl]-4,5,6,7-tetrahydrobenzothiophene-3-carboxamide] | 1000 to 10000
Cc1cc(Nc2nncn2[C@H]2CCc3sc(NC(=O)C4CC4)c(S(=O)(=O)NCC4CC4)c3C2)n(C)n1 [Example 215, N-[(5S)-3-(cyclopropylmethylsulfamoyl)-5-[3-[(2,5-dimethylpyrazol-3-yl)amino]-1,2,4-triazol-4-yl]-4,5,6,7-tetrahydrobenzothiophen-2-yl]cyclopropanecarboxamide] | < 1000
Cc1nnc(-c2ncn([C@H]3CCc4sc(NC(=O)C5CC5)c(C(=O)NCC5CC5)c4C3)c2N)o1 [Example 216, (5S)-5-[5-amino-4-(5-methyl-1,3,4-oxadiazol-2-yl)imidazol-1-yl]-2-(cyclopropanecarbonylamino)-N-(cyclopropylmethyl)-4,5,6,7-tetrahydrobenzothiophene-3-carboxamide] | < 1000
Cc1cc(Nc2nncn2[C@H]2CCc3sc(NC(=O)C4CC4)c(C(=O)NCC4CC4)c3C2)[nH]n1 [Example 217, (5S)-2-(cyclopropanecarbonylamino)-N-(cyclopropylmethyl)-5-[3-[(3-methyl-1H-pyrazol-5-yl)amino]-1,2,4-triazol-4-yl]-4,5,6,7-tetrahydrobenzothiophene-3-carboxamide] | < 1000
Cc1nn(C)cc1Nc1nncn1[C@H]1CCc2sc(NC(=O)C3CC3)c(C(=O)NCC3CC3)c2C1 [Example 218, (5S)-2-(cyclopropanecarbonylamino)-N-(cyclopropylmethyl)-5-[3-[(1,3-dimethylpyrazol-4-yl)amino]-1,2,4-triazol-4-yl]-4,5,6,7-tetrahydrobenzothiophene-3-carboxamide] | < 1000
Cn1nc(C2CC2)cc1Nc1nncn1[C@H]1CCc2sc(NC(=O)C3CC3)c(C(=O)NCC3CC3)c2C1 [Example 219, (5S)-2-(cyclopropanecarbonylamino)-N-(cyclopropylmethyl)-5-[3-[(5-cyclopropyl-2-methyl-pyrazol-3-yl)amino]-1,2,4-triazol-4-yl]-4,5,6,7-tetrahydrobenzothiophene-3-carboxamide] | < 1000
CC(C)c1cc(Nc2nncn2[C@H]2CCc3sc(NC(=O)C4CC4)c(C(=O)NCC4CC4)c3C2)n(C)n1 [Example 220, (5S)-2-(cyclopropanecarbonylamino)-N-(cyclopropylmethyl)-5-[3-[(5-isopropyl-2-methyl-pyrazol-3-yl)amino]-1,2,4-triazol-4-yl]-4,5,6,7-tetrahydrobenzothiophene-3-carboxamide] | < 1000
Cn1nc(C(F)(F)F)cc1Nc1nncn1[C@H]1CCc2sc(NC(=O)C3CC3)c(C(=O)NCC3CC3)c2C1 [Example 221, (5S)-2-(cyclopropanecarbonylamino)-N-(cyclopropylmethyl)-5-[3-[[2-methyl-5-(trifluoromethyl)pyrazol-3-yl]amino]-1,2,4-triazol-4-yl]-4,5,6,7-tetrahydrobenzothiophene-3-carboxamide] | < 1000
Cc1cc(Nc2nncn2[C@H]2CCc3sc(NC(=O)C4CC4)c(C(=O)NCC4CC4)c3C2)n(C(C)C)n1 [Example 222, (5S)-2-(cyclopropanecarbonylamino)-N-(cyclopropylmethyl)-5-[3-[(2-isopropyl-5-methyl-pyrazol-3-yl)amino]-1,2,4-triazol-4-yl]-4,5,6,7-tetrahydrobenzothiophene-3-carboxamide] | < 1000
Cc1cc(Nc2nncn2[C@H]2CCc3sc(NC(=O)C4CC4)c(C(=O)NCC4CC4)c3C2)n(C2CCOC2)n1 (stereo partly drawn) [Example 223, (5S)-2-(cyclopropanecarbonylamino)-N-(cyclopropylmethyl)-5-[3-[(5-methyl-2-tetrahydrofuran-3-yl-pyrazol-3-yl)amino]-1,2,4-triazol-4-yl]-4,5,6,7-tetrahydrobenzothiophene-3-carboxamide] | < 1000
Cn1nccc1Nc1nncn1[C@H]1CCc2sc(NC(=O)C3CC3)c(C(=O)NCC3CC3)c2C1 [Example 224, (5S)-2-(cyclopropanecarbonylamino)-N-(cyclopropylmethyl)-5-[3-[(2-methylpyrazol-3-yl)amino]-1,2,4-triazol-4-yl]-4,5,6,7-tetrahydrobenzothiophene-3-carboxamide] | < 1000
